Reference: patent publication EP1067939B1, “USE OF STEROIDAL ALKALOID DERIVATIVES AS INHIBITORS OF HEDGEHOG PROTEIN SIGNALING PATHWAYS” (The Johns Hopkins University, priority 1998, dated 1999)
Read-outs that look alike come from different tables or passages of the source.

Key:
[1] = test system: primary human lymphoblasts; test: Cholesterol Biosynthesis Assay (sterol profiles of cultured cells); type: cell-based; settings: five days
rat hepatoma cells = test: Cholesterol Esterification Assay (esterification of plasma membrane cholesterol); type: cell-based
From the text: Table 1. […] Table 1. Effects of synthetic and plant-derived compounds on cholesterol homeostasis. […]

endogenous Shh signaling = test: Midline neural plate/notochord explant assay of endogenous Shh signaling; type: cell-based, chick; settings: midline explants, two days of culture
Shh = molecular target: T1, Shh (Mus musculus, UniProt Q62226); test: Shh autoprocessing in stably transfected HK293 cells (immunoblot); type: cell-based; settings: added during the 24-hour induction period; doses up to 5-fold higher than those required to completely inhibit Shh signaling
T1 construct: expressed in transfected cells; host or cells: HK293 cells, Ecdysone-Inducible Mammalian Expression System (Invitrogen)
From the text: To examine potential effects of these compounds on Shh processing we utilized HK293 cells cultured in lipid-depleted serum and carrying a stable integrated construct for expression of Shh under ecdysone-inducible control (47). Shh protein expression in these cells can be induced by addition of muristerone A, an ecdysone analog.
• 1. M. Hammerschmidt, A. Brook, A. P. McMahon, Trends Genet, 13, 14-21 (1997). • 2. C. Chiang, et al., Nature, 383,407-413 (1996). • 3. Y. Tanabe, T. M. Jessell, Science 274, 1115-1123 (1996). • 4. T. P. Yamaguchi, Curr. Opin. Genet. Dev. 7, 513-518 (1997). • 5. N. Shubin, C. Tabin, S. Carroll, Nature 388, 639-648 (1997). • 6. A. E. Oro, et al., Science 276, 817-821 (1997). • 7. M. M. Cohen, K. K. Sulik, J. Craniofac. Genet. Deve. Biol. 12, 196-244 (1992). • 8. E. Belloni, et al., Nature Genet. 14, 353-356 (1996). • 9. E. Roessler, et al., Nature Genet. 14, 357-360 (1996). • 10. J. A. Porter, et al., Nature 374, 363-366 (1995). • 11. J. A. Porter, K. E. Young, P. A. Beacy, Science 274, 255-259 (1996b). • 12. J. J. Lee, et al., Science 266, 1528-1537 (1994). • 13. J. A. Porter, et al., Cell 86, 21-34 (1996a). • 14. C. Roux, Arch. Franc. Pediatr. 21, 451-464 (1964). • 15. C. Roux, C. R. Soc. Biol. 160, 1353-1357 (1966). • 16. D. B. Dehart, L. Lanoue, G. S. Tinit, K. K. Sulik, Am J. Med. Genet. 68, 328-337 (1997). • 17. M. Kraml, J. F. Bagli, D. Dvornik, Biochem. and Biophysical Res. Com. 15, 455-457 (1964). • 18. J. Avigan, D. Steinberg, H. E. Vroman, M. J. Thompson, E. Mosettig, J. Biol. Chem 235, 3123-3126 (1960). • 19. R. B. Clayton, A. N. Nelson, I. D. Frantz Jr., J. Lipid Res. 4, 166-178 (1963). • 20. J. Aufenanger, J. Pill, K. Stegmeier, F. H. Schmidt, Horm. Metabol. Res. 17, 612-613 (1986). • 21. […] G. Popjak, A. Meenean, E. J. Parish, W. D. Nes, J. Biol. Chem 264,6230-6238 (1989). • 23. H. Yoshikawa, Brain Deve. 13, 115-120 (1991). • 24. R. I. Kelley, et al., Am. J. Of Med. Gen. 66, 478-484 (1996). • 25. G. S. Tint, et al., New England Journal of Medicine 330, 107-113 (1994). • 26. T.E. Willnow, et al., Proc. Natl. Acad. Sci USA 93, 8460-8464 (1996). • 27. S. Stefansson, D. A. Chappell, K. M. Argraves, D. K. Strickland, W. S. Argraves, J. Biol. Chem. 270, 19417-19421 (1995). • 28. W. Binns, L. F. James, J. L. Shupe, G. Everett, Am. J. Vet. Res. 24, 1164-1174 (1963). • 29. R. F. Keeler, W. Binns, Teratology 1, 5-10 (1968). • 30. P. A. Beachy, et al., CSH Symp. Quant. Biol. 62, in press (1997). • 31. E. D. Carstea, et al., Science 277, 228-231 (1997). • 32. S. K. Loftus, et al., Science 277, 232-235 […]. • 33. L. V. Goodrich, L. Milenkovic, K. M. Higgins, M. P. Scott, Science 277, 1109-1113 (1997). • 34. H. Kumagai, K. T. Chun, R. D. Simoni, J. Biol. Chem. 270, 19107-19113 (1995). • 35. G. Gil, J. R. Faust, D. J. Chin, J. L. Goldstien, M. S. Brown, Cell 41, 249-258 (1985). • 36. X. Hua, A. Nohturfft, J. L. Goldstein, M. S. Brown, Cell 87, 415-426 (1996). • 37. M. S. Brown, J. L. Goldstein, Cell 89, 331-340 (1997). • 38. M. M. Bryden, C. Perry, R. F. Keeler, Teratology 8, 18-28 (1973). • 39. M. L. Omnell, F. R. P. Sim, R. F. Keeler, L. C. Harne, K. W. Brown, Teratology 42, 105-119 (1990). • 40. Fertile chick eggs (white leghorn) were placed in a humidified incubator at 37.5° C in a rotating tray for 14 hours. […] The window was taped and the eggs incubated for an additional 4 days. The embryos were dissected in phosphate buffered saline (PBS, pH 7.2).

Shh-N = test: Intermediate neural plate explant response to exogenous Shh-N protein; type: cell-based, chick; settings: for concentration that inhibits the repression of Pax7 expression by 2 nM Shh-N: 20 hours; for doses at which HNF3β and Isl-1 induction are completely blocked / intermediate levels at which induction of HNF3β is blocked while induction of Isl-1 is maintained or expanded: 25 nM Shh-N
[2] = read-out: Percent Inhibition (incorporation of label into cholesteryl ester*) ^3H-Cholesterol
[3] = read-out: Percent Inhibition (incorporation of label into cholesteryl ester*) ^14C-Oleic Acid

T1 sequence (Q62226 25-437): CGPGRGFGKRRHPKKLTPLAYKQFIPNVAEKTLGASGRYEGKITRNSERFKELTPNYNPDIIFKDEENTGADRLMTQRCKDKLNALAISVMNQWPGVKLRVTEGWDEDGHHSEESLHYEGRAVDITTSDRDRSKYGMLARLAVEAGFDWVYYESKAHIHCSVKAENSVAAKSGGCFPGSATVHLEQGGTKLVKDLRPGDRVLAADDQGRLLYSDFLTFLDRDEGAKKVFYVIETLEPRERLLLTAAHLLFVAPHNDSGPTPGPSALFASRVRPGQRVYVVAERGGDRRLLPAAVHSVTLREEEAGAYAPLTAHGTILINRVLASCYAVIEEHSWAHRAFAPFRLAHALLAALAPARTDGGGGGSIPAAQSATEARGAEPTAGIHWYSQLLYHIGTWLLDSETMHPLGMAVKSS

| SMILES | Percent Sterols: Cholesterol ([1]; 0.25 µM) [%] | Percent Sterols: b. 7 Dehydrodesmosterol ([1]; 0.25 µM) [%] | Percent Sterols: c. Cholesta-7,24-dien-3ß-ol ([1]; 0.25 µM) [%] | Percent Sterols: e. Cholesta-8(14)-en-3ß-ol ([1]; 0.25 µM) [%] | Total Sterols (µg/mg protein) ([1]; 0.25 µM) | Percent Sterols: 2. C28 Sterols ([1]; 0.5 µM) [%] | Percent Sterols: 3. C29 Sterols ([1]; 0.5 µM) [%] | Percent Sterols: Cholesterol ([1]; 0.5 µM) [%] | Percent Sterols: b. 7 Dehydrodesmosterol ([1]; 0.5 µM) [%] | Percent Sterols: c. Cholesta-7,24-dien-3ß-ol ([1]; 0.5 µM) [%] | Percent Sterols: e. Cholesta-8(14)-en-3ß-ol ([1]; 0.5 µM) [%] | Total Sterols (µg/mg protein) ([1]; 0.5 µM) | Percent Sterols: 2. C28 Sterols ([1]; 1.0 µM) [%] | Percent Sterols: 3. C29 Sterols ([1]; 1.0 µM) [%] | Percent Sterols: Cholesterol ([1]; 1.0 µM) [%] | Percent Sterols: b. 7 Dehydrodesmosterol ([1]; 1.0 µM) [%] | Percent Sterols: c. Cholesta-7,24-dien-3ß-ol ([1]; 1.0 µM) [%] | Percent Sterols: e. Cholesta-8(14)-en-3ß-ol ([1]; 1.0 µM) [%] | Total Sterols (µg/mg protein) ([1]; 1.0 µM) | inhibition at 2.5 µM (rat hepatoma cells; [2]) [%] | further results |
| --- | --- | --- | --- | --- | --- | --- | --- | --- | --- | --- | --- | --- | --- | --- | --- | --- | --- | --- | --- | --- | --- |
| CCN(CC)CCOc1ccc(C(O)(Cc2ccc(Cl)cc2)c2ccc(C)cc2)cc1 (stereo not drawn) [Triparanol, triparanol] | 56 | 6.0 | 3.1 | 9.1 | 4.1 | 2.6 | 8.1 | 45 | 4.1 | 2.4 | 8.7 | 5.1 | 1.5 | 5.5 | 51 | 2.9 | 2.6 | 7.3 | 3.1 | 49 | Percent Sterols: 2. C28 Sterols ([1]; 0.25 µM): 4.4%; Percent Sterols: 3. C29 Sterols ([1]; 0.25 µM): 7.8%; Percent Sterols: a. Desmosterol ([1]; 0.25 µM): 9.1%; Percent Sterols: d. Zymosterol ([1]; 0.25 µM): 9.3%; Percent Sterols: a. Desmosterol ([1]; 0.5 µM): 8.7%; Percent Sterols: d. Zymosterol ([1]; 0.5 µM): 27%; Percent Sterols: a. Desmosterol ([1]; 1.0 µM): 6.7%; Percent Sterols: d. Zymosterol ([1]; 1.0 µM): 23%; inhibition at 2.5 µM (rat hepatoma cells; [3]): 54%; inhibition at 5 µM (rat hepatoma cells; [2]): 57%; inhibition at 5 µM (rat hepatoma cells; [3]): 65%; inhibition at 10 µM (rat hepatoma cells; [2]): 79%; inhibition at 10 µM (rat hepatoma cells; [3]): 81%; Higher doses that fully inhibit HNF3β and Isl-1 induction (endogenous Shh signaling): 1.0 µM; Intermediate doses that block induction of HNF3β while permitting induction of Isl-1 (endogenous Shh signaling): 0.25 µM; Shh-Np production and accumulation of unprocessed precursor (Shh): did not diminish Shh-Np production nor induce accumulation of unprocessed precursor; concentration that inhibits the repression of Pax7 expression by 2 nM Shh-N (Shh-N): 0.25 µM; doses at which HNF3β and Isl-1 induction are completely blocked (Shh-N): 0.5 µM; intermediate levels at which induction of HNF3β is blocked while induction of Isl-1 is maintained or expanded (Shh-N): 0.25 µM |
| Clc1ccccc1CNC[C@H]1CC[C@H](CNCc2ccccc2Cl)CC1 [AY9944, AY 9944] | 30 | 3.5 | 1.8 | 9.7 | 7.6 | 1.1 | 3.3 | 33 | 3.0 | 1.9 | 14 | 8.3 | 2.6 | 4.6 | 34 | 1.9 | 1.6 | 20 | 8.3 | 39 | Percent Sterols: f. 7 Dehydrocholesterol ([1]; 0.25 µM): 50%; Percent Sterols: g. Lathosterol ([1]; 0.25 µM): 6.2%; Percent Sterols: f. 7 Dehydrocholesterol ([1]; 0.5 µM): 36%; Percent Sterols: g. Lathosterol ([1]; 0.5 µM): 7.3%; Percent Sterols: f. 7 Dehydrocholesterol ([1]; 1.0 µM): 16%; Percent Sterols: g. Lathosterol ([1]; 1.0 µM): 7.9%; Percent Sterols: h. C27 Sterol 1 (mw 384) ([1]; 1.0 µM): 5.3%; Percent Sterols: i. C27 Sterol 2 (mw 382) ([1]; 1.0 µM): 6.0%; inhibition at 2.5 µM (rat hepatoma cells; [3]): 20%; inhibition at 5 µM (rat hepatoma cells; [2]): 56%; inhibition at 5 µM (rat hepatoma cells; [3]): 35%; inhibition at 10 µM (rat hepatoma cells; [2]): 68%; inhibition at 10 µM (rat hepatoma cells; [3]): 51%; Higher doses that fully inhibit HNF3β and Isl-1 induction (endogenous Shh signaling): 4.0 µM; Intermediate doses that block induction of HNF3β while permitting induction of Isl-1 (endogenous Shh signaling): 0.5 µM; Shh-Np production and accumulation of unprocessed precursor (Shh): did not diminish Shh-Np production nor induce accumulation of unprocessed precursor; concentration that inhibits the repression of Pax7 expression by 2 nM Shh-N (Shh-N): 0.5 µM; doses at which HNF3β and Isl-1 induction are completely blocked (Shh-N): 2.0 µM; intermediate levels at which induction of HNF3β is blocked while induction of Isl-1 is maintained or expanded (Shh-N): 1.0 µM |
